Experimental data: patent US20230352149A1, “Single-cell morphology analysis for disease profiling and drug discovery” (Universität Heidelberg, priority 2020, published 2023)

Tested on: cardiomyocytes
Test: live cell imaging of changes in cell areas after stimulation (FIG. 17A)
Format: cell-based
Conditions: for changes in cell areas vs Ctrl: after 9 h, Ctrl vs PE/Ins; for early dynamics of cell area: early dynamics (<2.5 h), compared with ctrl (no increase)
Description: Image acquisition can be performed with a microscope. Preferably, this is performed at the end of the experiment. In other embodiments, the image acquisition is performed during the course of the experiment to analyze the cell response over time (video, live cell imaging).
In order to perform time series analysis, imaging of cells can happen multiple times with live cell fluorescent dyes. This allows visualizing the dynamics of cell morphological changes over time. Experiments have shown that certain dynamics leads to a characteristic set of meta-features associated with certain diagnoses, prognoses, and/or individualized therapy.

Molecule	changes in cell areas vs Ctrl	early dynamics of cell area
CNC[C@H](O)c1cccc(O)c1 [PE, phenylephrine]	differences following stimulation can be observed	steep increase
insulin	differences following stimulation can be observed	less steep increase
